Experimental data from US11198869B2, “Angelman syndrome antisense treatment” (The Texas A&M University System, priority 2017, dated 2021).

Key:
Format in all cases: cell-based, human
SNRPN = experiment: RNA-sequencing of Angelman syndrome iPSC neurons: SNRPN; conditions: 30 μM; six days post-treatment; RNA-seq
Protocol: (§1) RNA was isolated using Qiagen RNAeasy Plus (74136, Qiagen, Hilden, Germany). RNA concentration was determined using Qubit Fluorometric Quantitation (Thermo Fisher Scientific) and RNA quality was assessed using a 4200 Agilent TapeStation (Agilent, Santa Clara, Calif.). RNA-sequencing libraries were generated using the Illumina TruSeq Stranded Total RNA kit (20020597, Illumina, Inc., San Diego, Calif.) according to the manufacturer's protocol. 75 base-pair paired-end sequencing was performed using a NextSeq 500 (IIlumina, San Diego, Calif.) at the Texas A&M Institute for Genome Sciences and Society Genomics core. Raw sequencing reads were processed using CASAVA. The resulting FASTQ sequences were examined using FASTQC. […]
(§2) To determine whether ASO-4.4.PS.L and ASO-6.1.PO-1.O affect the levels of RNA transcripts encoded by the PWS polycistronic transcript, RNA-sequencing was performed on AS iPS cells treated with each ASO and the steady state RNA levels of SNURF, SNRPN, the SNORD116 host-gene transcript (SNHG116), the SNORD116 snoRNAs, IPW, the SNORD115 host-gene transcript (SNHG115), the SNORD115 snoRNAs, and UBE3A-AS were quantified. UBE3A steady state RNA levels were also measured. […]

[1] = tested on: SNORD116 host-gene transcript (SNHG116); experiment: RNA-sequencing of Angelman syndrome iPSC neurons: SNHG116; conditions: 30 μM; six days post-treatment; RNA-seq
Protocol: as §1, §2

UBE3A = UBE3A steady state RNA (qRT-PCR) in glutamatergic iPSC-derived neurons; conditions: 14 DIV to 20 DIV, 10-point dose curve
Protocol: ASO-4 and ASO-6.1 were also examined in glutamatergic iPSC-derived neurons. Glutamatergic iPSC-derived neurons were treated at 14 DIV with a 10-point ½ log dose response curve of ASO-4 and ASO-6.1 [1 nM, 3 nM, 10 nM, 30 nM, 100 nM, 300 nM, 1 μM, 3 μM, 10 μM, and 30 μM (n=3)]. At 20 DIV, the IC50 and Emax of each ASO was estimated as described above (FIG. 5E-F and Table 15).
GABAergic and glutamatergic induced pluripotent stem cell (iPSC) derived neural precursor cells (NRC-100-010-001 and GNC-301-030-001, Cellular Dynamics International, Madison Wis.) were differentiated into neurons according to the manufactures protocol. Briefly, neural precursor cells were thawed and resuspended in chemically defined medium and added to sterile-culture plates coated with poly-D-lysine and laminin. The medium was replaced 24 hr after plating and then one-half of the medium was replaced every 3-5 days afterwards. […]
The steady state RNA levels of target transcripts were measured using TaqMan quantitative reverse-transcription PCR (qRT-PCR) assays. […] Cycling conditions were 2 minutes at 50° C., 10 minutes at 95° C., and 40 cycles of 15 seconds at 95° C. and 1 minute at 60° C., with readings taken at the 60° C. step of every cycle. […] Data was retrieved and analyzed with the BIORAD CFX Maestro software (Bio-Rad Laboratories). […]

C^O*U^O*G^O*G^O-t*g*t*c*a*a*c*a*a*g-C^O*C^O*A^O*A^o [ASO-6.1.PO-1.O]
Difference, SNRPN RNA level relative to vehicle (SNRPN): 0.03 | Difference, SNHG116 RNA level relative to vehicle [1]: −0.07

A^L*G^L*A^L*a*t*g*g*c*a*c*a*t*c*t*5mC^L*T^L*T^L*G^L (NNNATGGCACATCTNNNN; LNA gapmer, PS, 5-methylcytosine, chemistry not fully specified) [ASO-4.4.PS.L]
Difference, SNRPN RNA level relative to vehicle (SNRPN): −0.02 | Difference, SNHG116 RNA level relative to vehicle [1]: −0.24

U^O*A^O*G^O*A^O*A^O*t*g*g*c*a*c*a*t*c*t*C^O*U^O*U^O*G^O*G^O [ASO-4]
effect on UBE3A RNA levels (in words) (UBE3A): increased UBE3A RNA levels in a dose dependent manner

C^O*U^O*G^O*G^O*t*g*t*c*a*a*c*a*a*g*C^O*C^O*A^O*A^O [ASO-6.1]
effect on UBE3A RNA levels (in words) (UBE3A): increased UBE3A RNA levels in a dose dependent manner
